Reference: US9932325B2 (Denali Therapeutics Inc., priority 2015, dated 2018)
Several values for one entry are separate records, joined by “and”; a condition that tells them apart may be missing. Equal entries are not always repeated.

Experiments:
[1] = molecular target: LRRK2 G2019S enzyme (Homo sapiens (Human), UniProt Q5S007, G2019S); assay: LRRK2 G2019S TR-FRET biochemical assay (LRRKtide substrate); conditions: 134 μM ATP
How it was run: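 Kinase and LRRKtide substrate were preincubated with compound 20 minutes at 23° C, then ATP was added and the reaction ran 60 minutes at 23° C. Detection used 2 nM antibody with 10 mM EDTA in TR-FRET dilution buffer, 60 minutes at 23° C, read by TR-FRET.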

[2] = Metabolic stability in human liver microsomes; type: in vitro ADME; conditions: 1 μM compound, 0.5 mg/mL protein, projected hepatic clearance, well-stirred model
Procedure: Metabolic stability of compounds was evaluated in human liver microsomes (from Corning or XenoTech, LLC) using a 96-well plate assay format. Compounds were incubated at 37° C. at 1 μM final concentration in the microsomal matrix (0.5 mg/mL total protein) in the presence or absence of NADPH cofactor. An NADPH regenerating system, comprised of NADP, MgCl2, isocitric acid, and isocitrate dehydrogenase, was used in the assay. Enzymatic reactions were conducted for 0, 5, 10, 20, 30, or 60 min before termination by addition of acetonitrile containing tolbutamide and labetalol internal standards (100 ng/mL). After shaking for 10 min, plates were subjected to centrifugation (4000 rpm at 4° C.) for 20 min and supernatants were mixed 1:3 with HPLC grade water. Samples were analyzed by LC-MS/MS using appropriate MRM transitions for each analyte and internal standard (IS). Analyte/IS peak area ratios were used to determine percent compound remaining at each time point. Intrinsic clearance (Clint; expressed as mL·min^−1·mg^−1) was calculated from the first order elimination constant (k, min^−1) of test article decay and the volume of the incubation. These values were scaled to intrinsic organ clearance (Clint) using human specific scaling factors (48.8 mg microsomal protein per g liver; 25.7 g liver per kg body weight). Organ Clint was subsequently converted to hepatic clearance (CLhep, mL·min-1·kg-1) using the well-stirred model of hepatic elimination, where Qh is human hepatic blood flow (20.7 mL·min-1·kg-1).
CLhep is the projected human clearance in the liver based on the above in vitro assay. A lower value is indicative of less compound being removed by the liver.

[3] = molecular target: MDR1 (P-glycoprotein) (Homo sapiens (Human), UniProt P08183); assay: MDR1-MDCK permeability, bidirectional assay; type: in vitro ADME; conditions: dog, MDR1-MDCK cells, monolayer efflux ratio, pH 7.4, read-out: MDR1 ER
MDR1 (P-glycoprotein), sequence (P08183 whole entry): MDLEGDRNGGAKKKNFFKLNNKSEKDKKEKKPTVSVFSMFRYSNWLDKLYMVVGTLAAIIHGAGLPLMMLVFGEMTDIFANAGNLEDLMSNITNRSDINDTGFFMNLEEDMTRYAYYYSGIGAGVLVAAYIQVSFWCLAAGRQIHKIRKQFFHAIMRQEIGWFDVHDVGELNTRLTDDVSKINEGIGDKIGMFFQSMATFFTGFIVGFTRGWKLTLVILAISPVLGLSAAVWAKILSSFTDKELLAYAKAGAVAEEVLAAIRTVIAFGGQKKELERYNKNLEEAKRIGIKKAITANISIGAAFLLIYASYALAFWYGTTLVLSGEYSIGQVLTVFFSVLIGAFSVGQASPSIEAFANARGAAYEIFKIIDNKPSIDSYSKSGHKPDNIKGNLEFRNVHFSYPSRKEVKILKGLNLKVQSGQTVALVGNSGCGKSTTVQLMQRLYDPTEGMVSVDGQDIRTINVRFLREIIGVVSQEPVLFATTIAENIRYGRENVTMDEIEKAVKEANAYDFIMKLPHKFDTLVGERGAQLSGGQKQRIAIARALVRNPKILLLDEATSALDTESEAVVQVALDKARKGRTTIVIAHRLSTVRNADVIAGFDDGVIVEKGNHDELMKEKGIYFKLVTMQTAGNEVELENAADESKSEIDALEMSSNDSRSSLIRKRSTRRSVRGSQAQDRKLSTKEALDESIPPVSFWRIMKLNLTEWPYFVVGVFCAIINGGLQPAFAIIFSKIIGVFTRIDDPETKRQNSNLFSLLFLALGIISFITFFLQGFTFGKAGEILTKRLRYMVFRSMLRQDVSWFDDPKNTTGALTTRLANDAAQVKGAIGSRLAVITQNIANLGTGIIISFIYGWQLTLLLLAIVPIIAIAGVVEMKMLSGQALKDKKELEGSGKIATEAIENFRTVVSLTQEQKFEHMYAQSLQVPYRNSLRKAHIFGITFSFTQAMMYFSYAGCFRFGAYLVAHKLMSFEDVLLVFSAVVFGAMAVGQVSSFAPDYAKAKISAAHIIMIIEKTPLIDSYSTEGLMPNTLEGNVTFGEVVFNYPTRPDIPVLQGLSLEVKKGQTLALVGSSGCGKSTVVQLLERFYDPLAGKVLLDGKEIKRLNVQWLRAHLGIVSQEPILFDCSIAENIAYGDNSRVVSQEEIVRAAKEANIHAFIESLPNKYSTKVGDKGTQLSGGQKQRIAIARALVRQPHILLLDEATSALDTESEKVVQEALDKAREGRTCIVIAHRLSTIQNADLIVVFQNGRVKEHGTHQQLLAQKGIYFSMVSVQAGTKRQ
Procedure: The blood brain barrier (BBB) separates circulating blood from the extracellular fluid of the central nervous system (CNS). The passive membrane permeability (Papp) and MDR1 (P-glycoprotein) substrate efflux potential were determined using the MDR1-MDCK cell line as an in vitro model of the effective permeability of a compound through the BBB. A bidirectional assay was conducted in pre-plated MDR1-MDCK cells using a 12 or 96-well plate in the absence or presence of MDR1 inhibitor (GF120918 or Valspodar). Assays were run in duplicate in transport buffer (HBSS, pH 7.4) for 90 or 120 min (minutes) at 37° C., using a test article concentration of 1 μM. Monolayer integrity was confirmed using Lucifer yellow, and appropriate positive controls for passive permeability and MDR1 transport were included in each experiment. Following incubation, samples from donor and receiver compartments were removed and quenched with acetonitrile containing an appropriate internal standard (IS). Protein was precipitated by centrifugation for 10 min at 3220 g, and supernatants were diluted in ultra-pure water (if necessary) prior to analysis by LC-MS/MS using appropriate MRM transitions for analytes and IS. Papp (apparent permeability expressed in cm/sec [centimeter/second]) values were calculated according to the following equation:
[formula] where VR is the solution volume in the receiver chamber (apical or basolateral side), Area is the surface area for the insert membrane), Time is incubation time expressed in seconds, CR is the peak area ratio (analyte/IS) in the receiver chamber, CA is the average of the initial and final concentrations in the donor chamber, and Co is the initial peak area ratio in the donor chamber. Papp was determined in both the apical to basolateral (A→B) and basolateral to apical (B→A) directions.
Monolayer efflux ratios (ER) were derived using the following equation: […]

LRRK2 G2019S enzyme, sequence (Q5S007 whole entry G2019S): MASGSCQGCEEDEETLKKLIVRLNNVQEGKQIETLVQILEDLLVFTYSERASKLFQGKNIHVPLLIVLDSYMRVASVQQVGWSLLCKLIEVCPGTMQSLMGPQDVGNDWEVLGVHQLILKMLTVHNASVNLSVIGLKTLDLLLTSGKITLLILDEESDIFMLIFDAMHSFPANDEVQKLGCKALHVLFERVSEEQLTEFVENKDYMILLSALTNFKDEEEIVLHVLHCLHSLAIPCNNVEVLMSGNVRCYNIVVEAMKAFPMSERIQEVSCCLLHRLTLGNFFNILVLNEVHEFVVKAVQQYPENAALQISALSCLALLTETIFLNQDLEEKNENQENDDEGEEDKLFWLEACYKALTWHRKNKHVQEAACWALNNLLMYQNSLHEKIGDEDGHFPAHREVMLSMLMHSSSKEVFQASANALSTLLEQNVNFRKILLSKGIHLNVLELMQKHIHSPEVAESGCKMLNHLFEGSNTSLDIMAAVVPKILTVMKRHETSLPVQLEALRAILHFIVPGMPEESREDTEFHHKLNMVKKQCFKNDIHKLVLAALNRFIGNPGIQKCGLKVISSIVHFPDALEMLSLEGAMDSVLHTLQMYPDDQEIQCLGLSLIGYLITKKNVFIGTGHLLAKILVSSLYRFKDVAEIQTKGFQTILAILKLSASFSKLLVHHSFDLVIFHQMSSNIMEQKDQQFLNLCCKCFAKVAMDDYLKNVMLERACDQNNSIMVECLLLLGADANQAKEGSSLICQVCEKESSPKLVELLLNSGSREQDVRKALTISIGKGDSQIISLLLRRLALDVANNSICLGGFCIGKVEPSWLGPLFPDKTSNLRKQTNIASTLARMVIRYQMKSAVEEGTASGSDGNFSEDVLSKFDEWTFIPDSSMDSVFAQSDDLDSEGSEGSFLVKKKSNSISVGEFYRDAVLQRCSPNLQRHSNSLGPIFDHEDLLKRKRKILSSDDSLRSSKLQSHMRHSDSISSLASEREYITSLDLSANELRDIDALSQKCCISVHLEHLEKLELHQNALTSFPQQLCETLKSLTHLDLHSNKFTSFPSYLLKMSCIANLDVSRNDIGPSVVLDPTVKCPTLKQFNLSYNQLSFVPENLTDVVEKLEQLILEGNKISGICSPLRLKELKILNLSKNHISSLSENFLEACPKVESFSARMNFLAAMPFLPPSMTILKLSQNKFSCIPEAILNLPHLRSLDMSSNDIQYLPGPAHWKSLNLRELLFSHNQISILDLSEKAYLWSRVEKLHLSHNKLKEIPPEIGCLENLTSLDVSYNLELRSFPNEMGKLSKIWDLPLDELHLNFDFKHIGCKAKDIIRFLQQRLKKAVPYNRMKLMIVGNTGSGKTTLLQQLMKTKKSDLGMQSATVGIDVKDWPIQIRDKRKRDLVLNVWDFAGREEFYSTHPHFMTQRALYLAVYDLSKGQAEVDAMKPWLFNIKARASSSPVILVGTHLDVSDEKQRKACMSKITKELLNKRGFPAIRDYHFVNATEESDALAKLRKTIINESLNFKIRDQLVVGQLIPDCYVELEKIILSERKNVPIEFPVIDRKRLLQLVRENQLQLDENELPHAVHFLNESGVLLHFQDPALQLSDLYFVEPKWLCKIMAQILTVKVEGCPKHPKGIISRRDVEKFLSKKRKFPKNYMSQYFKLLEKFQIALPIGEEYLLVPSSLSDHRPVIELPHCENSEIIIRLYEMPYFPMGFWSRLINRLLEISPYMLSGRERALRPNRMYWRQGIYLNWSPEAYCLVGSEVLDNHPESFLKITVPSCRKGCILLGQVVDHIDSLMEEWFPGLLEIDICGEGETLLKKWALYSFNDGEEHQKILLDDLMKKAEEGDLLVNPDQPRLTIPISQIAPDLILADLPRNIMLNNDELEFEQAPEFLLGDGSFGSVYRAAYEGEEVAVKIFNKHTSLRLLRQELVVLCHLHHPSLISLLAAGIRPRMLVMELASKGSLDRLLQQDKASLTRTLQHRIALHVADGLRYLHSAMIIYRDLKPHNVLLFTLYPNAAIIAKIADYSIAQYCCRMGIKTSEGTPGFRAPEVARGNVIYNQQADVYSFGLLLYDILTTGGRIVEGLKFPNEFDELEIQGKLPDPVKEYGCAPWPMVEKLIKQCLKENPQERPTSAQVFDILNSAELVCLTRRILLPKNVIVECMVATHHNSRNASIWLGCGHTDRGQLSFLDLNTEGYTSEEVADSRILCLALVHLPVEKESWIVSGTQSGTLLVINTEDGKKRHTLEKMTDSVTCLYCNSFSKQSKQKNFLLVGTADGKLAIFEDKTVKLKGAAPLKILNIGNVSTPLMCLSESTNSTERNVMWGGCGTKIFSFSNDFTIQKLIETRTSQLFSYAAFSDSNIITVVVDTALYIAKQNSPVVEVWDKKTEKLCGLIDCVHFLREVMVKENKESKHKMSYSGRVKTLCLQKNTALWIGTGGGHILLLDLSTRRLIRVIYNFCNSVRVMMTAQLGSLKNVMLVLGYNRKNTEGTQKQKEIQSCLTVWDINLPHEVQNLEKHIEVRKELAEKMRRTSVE

IC50 [1] | Human liver microsomes CLhep [2] | efflux ratio at 1 μM [3] | SMILES
< 30 nM and 0.96 nM | 11.59 mL/min/kg |  | CCNc1nc(Nc2cn(C3(C)CCOC3=O)nc2C2CC2)ncc1C(F)(F)F (single isomer, unassigned) [Compound 104]
< 30 nM and 0.72 nM | 9.856 mL/min/kg |  | CNc1nc(Nc2cn(C3(C)CCOC3=O)nc2C2CC2)ncc1C(F)(F)F (single isomer, unassigned) [Compound 122]
< 30 nM and 1.95 nM | 5.519 mL/min/kg |  | CNc1nc(Nc2cc(C3(C)CCOC3=O)nn2C2CC2)ncc1C(F)(F)F (single isomer, unassigned) [Compound 155]
< 30 nM and 2.31 nM | 0.75 mL/min/kg | 4.8 | [2H]C([2H])([2H])n1nc(C(C)(C)n2nccn2)cc1Nc1ncc(C(F)(F)F)c(NCC)n1 [Compound 34, N4-Ethyl-N2-[1-(^2H3)methyl-3-[2-(2H-1,2,3-triazol-2-yl)propan-2-yl]-1H-pyrazol-5-yl]-5-(trifluoromethyl)pyrimidine-2,4-diamine]
< 30 nM and 2.23 nM | 3.18 mL/min/kg | 4.01 | [2H]C([2H])([2H])n1nc(C(C)(C)n2nccn2)cc1Nc1ncc(C(F)(F)F)c(NC2CC2)n1 [Compound 68]
< 30 nM and 3.69 nM | 4.81 mL/min/kg | 2 | CCNc1nc(Nc2cc(C(C)(C)n3nccn3)nn2C2CC2)ncc1C(F)(F)F [Compound 78, N2-[2-cyclopropyl-5-[1-methyl-1-(triazol-2-yl)ethyl]pyrazol-3-yl]-N4-ethyl-5-(trifluoromethyl)pyrimidine-2,4-diamine]
< 30 nM and 1.55 nM | 7.81 mL/min/kg | 0.83 | CCNc1nc(Nc2cn(C(C)(C)C#N)nc2C2CC2)ncc1C(F)(F)F [Compound 118]
< 30 nM and 4.98 nM | 2.237 mL/min/kg |  | CCNc1nc(Nc2cc(C(C)(C)C#N)nn2C2CC2)ncc1C(F)(F)F [Compound 131]
< 30 nM and 5.91 nM | 0 mL/min/kg | 86 | CNc1nc(Nc2cn(C(C)(C)c3ncn(C)n3)nc2C)ncc1C(F)(F)F [Compound 218]

Further lines, the compound ahead of its results:

SMILES | IC50 [1] | Human liver microsomes CLhep [2] | efflux ratio at 1 μM [3]
CCNc1nc(Nc2cn(C3(C)CCOC3=O)nc2C2CC2)ncc1Br (single isomer, unassigned) [Compound 114] | < 30 nM and 1.05 nM | 16.508 mL/min/kg | 
CCNc1nc(Nc2cc(C3(C)CCOC3=O)nn2C2CC2)ncc1C(F)(F)F (single isomer, unassigned) [Compound 143] | < 30 nM and 1.21 nM | 7.81 mL/min/kg | 
CCNc1nc(Nc2cc(C3(C)CCOC3=O)nn2C2CC2)ncc1Br (single isomer, unassigned) [Compound 150] | < 30 nM and 1.22 nM | 11.077 mL/min/kg | 
CCNc1nc(Nc2cc(C3(C)CCn4ncnc43)nn2C2CC2)ncc1C(F)(F)F (single isomer, unassigned) [Compound 172] | < 30 nM and 1.47 nM | 19.9 mL/min/kg | 42
CCNc1nc(Nc2cnn(C3CC(C#N)C3)c2C)ncc1C(F)(F)F (centres unmarked) [Compound 27] |  | 7.81 mL/min/kg | 0.88
CCNc1nc(Nc2cn(C(C)(C)C#N)nc2C2CC2)ncc1Br [Compound 93] | < 30 nM and 1.87 nM | 17.663 mL/min/kg | 
CCNc1nc(Nc2cc(C(C)(C)C#N)nn2C2CC2)ncc1Br [Compound 141] | < 30 nM and 3.94 nM | 13.508 mL/min/kg | 
